Converted amounts (≈) assume the structure as drawn. “And” between values parts separate entries of the source, which are not always exact repeats. Equal entries are not always repeated.
Legend:
[1] = Pharmacokinetic study in healthy volunteers after oral administration of hordenine-rich dietary supplement (plasma, mag-MIP d-SPE, LC-MS/MS); format: in vivo, human
Experimental: Quantitative analysis was performed using an Agilent 1260 Infinity system (Agilent Technologies, Santa Clara, CA, United States, https://www.agilent.com), equipped with a degasser, an autosampler, and a binary pump coupled to a QTRAP 4000 hybrid triple quadrupole/linear ion trap mass spectrometer (AB Sciex, Framingham, MA, United States, https://sciex.com). The turbo ion spray source was operated in positive mode. The curtain gas, ion source gas 1, ion source gas 2, and collision gas (all high-purity nitrogen) were set at 345, 207, 276 kPa, and “high” instrument units (4.6 × 10^–5 Torr), respectively. The ion spray voltage and source temperature were 5000 V and 600 °C, respectively. The target compounds were analyzed in multiple reaction monitoring mode. The quantitative multiple reaction monitoring transitions, declustering potential (DP) and collision energy (CE) for hordenine and hordenine-d6 were (m/z) 166 > 121 (DP = 61 V, CE = 21 V) and 172 > 121 (DP = 66 V, CE = 19 V), respectively. […] The column was maintained at 40 °C at the flow rate of 0.5 mL/min. The mobile phases consisted of 20 mM aqueous ammonium acetate as eluent A and acetonitrile with 0.2% formic acid as eluent B. The gradient (% B) was as follows: 0 min 10%, 1 min 10%, 3 min 95%, and 5 min 95%. The reequilibration of the column to the initial conditions lasted 1.5 min.
For the optimization of the d-SPE process, a mass of 5 mg of mag-MIP was transferred to an Eppendorf tube together with a volume of 300 μL of untreated plasma sample (or in the optimization process: sample diluted with water or sample pretreated with methanol (1:1, v/v)). A sample of plasma pretreated with methanol was centrifuged (10 000g, 5 min) prior to loading to mag-MIP together with 30 μL of IS (c = 50 μg/L). Next, the tube was put on the vortex to provide contact time with the sorbent for 5 min (in the optimization of loading time, the step lasted 5, 15, 30, or 60 min). Then, the supernatant, separated from the sorbent by an external magnetic field, was discarded and the washing step was carried out by applying water, 300 μL of ultrapure water for 0.5 min on the vortex (or in the optimization process, methanol–water 85:15 v/v). The supernatant was removed in the same manner as described above. Finally, the elution took place by adding 500 μL of 5% ammonium hydroxide in methanol. The elution time was set for 5 min (in the optimization process, the step lasted 5, 15, 30, or 60 min). The elution fraction was separated from the sorbent by the application of an external magnetic field. In each optimized step, the recoveries of hordenine were analyzed. The eluate was evaporated to dryness (40 °C, 5 min), reconstituted in a volume of 70 μL of 20% aqueous methanol, and an aliquot of 10 μL was injected into the LC–MS/MS. Each experiment was performed in triplicate. The recovery was calculated by comparing the mean area response of plasma sample spiked before and after extraction.
Three healthy volunteers (men, aged 25–30 years) were enrolled in this study after obtaining written informed consent. All participants were nonsmokers with body weight no less than 50 kg and body mass index 25.7 ± 3.7 kg/m^2. Their body weights were 80 kg (two volunteers) and 105 kg (one volunteer). Subjects neither consumed alcohol nor received any medication for 2 weeks prior to the start of the study. Hordenine was administered orally in the morning with a dose of 100 mg (in starch capsules) after overnight fasting. Plasma samples of approximately 2 mL were collected (in vials containing di-potassium ethylene diaminetetraacetic acid as an anticoagulant) before and at 20, 30, 45, 60, 75, 90, 120, 180, and 240 min post-dose. After collection, plasma samples were centrifuged at 2000g for 15 min at room temperature and plasma samples were analyzed. […]

[2] = Pharmacokinetic profile of hordenine in plasma after alcohol free beer consumption by one volunteer; format: in vivo, human
From the text: It is known that hordenine levels in plasma after beer consumption are low.[10] Thus, to verify the newly proposed analytical method as well as to reveal its applicability, the evaluation of hordenine pharmacokinetics profiles after beer consumption was also investigated. The results are presented in Supporting Information Section S2.
Determination of pharmacokinetic profile after beer consumption
In order to reveal the applicability of new analytical method, the comparative studies of hordenine pharmacokinetic after alcohol free beer consumption was performed. Firstly we confirmed the presence of hordenine in the beverage since no data on hordenine content in alcohol free beer exist. Then the volunteer consumed 0.5 L of beer within 5 min. The blood was collected 10 min., 20 min., 30 min., 45 min., 1 h, 2 h, 4 h, and 6 h after the beginning of beer […]
Regarding alcohol free beer the hordenine content was 1.3 mg/L for Karmi Classic, 1.2 mg/L for Żywiec, 2.5 mg/L for Heineken zero, 2.3 mg/L for Lech. Thus, for further experiments Heineken zero was selected. […]
distribution Vz/F 1810 L. We confirmed the results of Sommer et al. (2020) that the Cmax is too low to directly interact with D2 receptors. One of the explanation of the lower Cl/F and Vz/F than obtained for supplement can be higher bioavailability of hordenine form beer than supplements and/or non linear pharmacokinetics. Thus, further study are needed.
Figure A. Mean plasma concentration-time profile of hordenine after beer consumption by one

[3] = Stability of the analyte in the biological matrix (human plasma) and the extract; format: in vitro ADME; conditions: for stability in extract in the autosampler: 48 h, 4 °C; for stability after short-term storage at room temperature / stability after freeze–thaw cycles: human plasma; for stability after short-term storage at room temperature: 4 h, 21 ± 2 °C; for stability after freeze–thaw cycles: three cycles at −20 °C storage, 25 °C thawing
Experimental: Selectivity was evaluated using six blank plasma samples, which were evaluated for interference from the matrix components in the determination of hordenine. The accuracy and precision of the method were determined within runs (n = 5) and between runs (n = 15, five replicate samples on three separate runs) using quality control (QC) samples (0.1, 25, and 40 μg/L). Accuracy was expressed as percent relative error of the spiked nominal value, whereas precision was expressed as relative standard deviation (RSD). The linearity range was set between 0.05 and 50 μg/L. Eight point calibration lines (n = 3) were constructed by plotting peak area ratios of each targeted analyte to an area of IS versus the nominal concentration of the analyte. LLOQ was selected to give the signal at least five times higher than the signal of blank samples and satisfactory results of accuracy and precision. LLOQ, QCs, and calibration standards were prepared on blank plasma. The matrix effect was evaluated by analyzing low and high QCs using plasma from six different lots and included hemolyzed and hyperlipidemic plasma samples. Matrix factor (MF) was determined by calculating the ratio of the peak area in the presence of matrix (blank plasma spiked with the analyte post extraction) to the peak area in the absence of matrix (pure solution of the analyte). Additionally, the coefficient of variation (CV) of the IS-normalized MF (expressed as the MF of analyte divided by the MF of IS) was presented. All stability studies were performed at low and high QCs. The autosampler stability was determined after 48 h of extract storage in an autosampler (4 ± 0.5 °C). The freeze and thaw stabilities were determined in a process of three freeze–thaw cycles at −20 ± 2 °C storage temperature and 25 ± 0.5 °C thawing temperature, at least 12 h after freezing. The short-term stability was determined after 4 h of storage at room temperature, 21 ± 2 °C. Carryover was studied by injecting blank plasma sample after calibration standard at 40 μg/L

[4] = Simple allometric scaling of rat t1/2 to human; conditions: from rat t1/2 4.6 ± 1.6 h with t1/2(Human) ∼ 4t1/2(Rat)
From the text: However, further studies are required.

[5] = design: method as in PMID 25880244; conditions: rats, cited from earlier work
dopamine D2 receptor = biological target: dopamine D2 receptor; design: method as in PMID 28281694; conditions: cited from earlier work
[6] = weak base; source not given; cited from earlier work
[7] = four volunteers, 1 L of beer with hordenine content 6.30 ± 0.19 mg/L; cited from earlier work
[8] = cited from earlier work
[9] = human plasma, single oral dose 100 mg hordenine, three healthy volunteers, mean
[10] = male, human, plasma, single oral dose 100 mg hordenine, three healthy volunteers, mean

Compound: CN(C)CCc1ccc(O)cc1 [hordenine, 4-(2-dimethylaminoethyl)phenol]
- AUCt [1, 9]: 1390 µg·min/L
- AUCt norm (body weight normalized) [1, 9]: 16.5 µg·min/L/kg
- AUC∞ [1, 9]: 1440 µg·min/L
- AUC∞ norm (body weight normalized) [1, 9]: 17.1 µg·min/L/kg
- concentration at 1 h ([1]; male, human, in vivo, plasma collected at 1 h after administration of 100 mg of hordenine, read-out: calculated concentration in test plasma): 8.7 ng/mL
- Cmax [1, 10]: 16.4 ng/mL
- MRT inf [1, 10]: 1.88 h
- MRT last [1, 10]: 1.7 h
- Tmax [1, 10]: 1.08 h
- CL/F ([1]; male, human, plasma, single oral dose 100 mg hordenine, three healthy volunteers, mean, read-out: Cl/Fnorm (body weight normalized) (converted)): 850 mL/min/kg
- Vd/F ([1]; male, human, plasma, single oral dose 100 mg hordenine, three healthy volunteers, mean, read-out: Vz/F (apparent distribution volume)): 6000 L
- Vd/F ([1]; male, human, plasma, single oral dose 100 mg hordenine, three healthy volunteers, mean, read-out: Vz/Fnorm (body weight normalized)): 66 L/kg
- half-life ([1]; male, human, plasma, single oral dose 100 mg hordenine, three healthy volunteers, mean, read-out: t1/2 (terminal half-life)): 0.9 h
- Cl/F (apparent plasma clearance) ([1]; single oral dose 100 mg hordenine, three healthy volunteers, mean): 4700 ± 1700 L/h and 4700 L/h
- apparent oral clearance (Cl/F) ([2]; 0.5 L alcohol free beer (hordenine 2.5 mg/L)): 2320 L/h
- time to reach Cmax ([2]; 0.5 L alcohol free beer, from the beginning of beer consumption): 25 min
- Cmax ([2]; human, plasma, oral, 1.25 mg, 0.5 L alcohol free beer (Heineken zero, hordenine 2.5 mg/L)): 0.4 ng/mL
- Vd/F ([2]; human, plasma, oral, 1.25 mg, 0.5 L alcohol free beer (hordenine 2.5 mg/L), read-out: volume of distribution Vz/F): 1810 L
- stability in extract in the autosampler ([3]; QC1 (0.1 μg/L)): 94%
- stability in extract in the autosampler ([3]; QC3 (40 μg/L)): 110%
- stability after short-term storage at room temperature ([3]; QC1 (0.1 μg/L)): 103%
- stability after freeze–thaw cycles ([3]; QC1 (0.1 μg/L)): 108%
- stability after short-term storage at room temperature ([3]; QC3 (40 μg/L)): 107%
- stability after freeze–thaw cycles ([3]; QC3 (40 μg/L)): 104%
- estimated t1/2(Human) by allometric scaling [4]: 1.15 ± 0.4 h
- t1/2 (hordenine elimination) ([5]; oral administration, dose of 15 mg/kg): 4.6 ± 1.6 h
- bioavailability [5]: 66.2%
- EC50 (dopamine D2 receptor): 0.61 µg/mL (≈ 3.69 µM)
- pKa of the strongest bases [6]: 9.19
- maximum plasma concentrations [7]: 1.98 to 2.85 µg/L
- blood–brain barrier crossing [8]: can cross the blood–brain barrier

Source: PMC7735731, “Application of Magnetic Core–Shell Imprinted Nanoconjugates for the Analysis of Hordenine in Human Plasma-Preliminary Data on Pharmacokinetic Study after Oral Administration” (Journal of Agricultural and Food Chemistry, 2020)
